“And” between values parts separate entries of the source, which are not always exact repeats. Equal values may be shown once. Read-outs that look alike come from different tables or passages of the source. Non-standard residues stand in square brackets, D forms with d. Residues, ends and D or L forms follow the SMILES beside them. No end group written: not given here. Phe(4-NH2) = Nc1ccc(C[C@H](N)C(=O)O)cc1; d(aIle) = CC[C@H](C)[C@@H](N)C(=O)O; hArg = N=C(N)NCCCC[C@H](N)C(=O)O; hPhe = N[C@@H](CCc1ccccc1)C(=O)O; Cit = NC(=O)NCCC[C@H](N)C(=O)O; dTle = CC(C)(C)[C@@H](N)C(=O)O; Phg = N[C@H](C(=O)O)c1ccccc1; hLys = NCCCCC[C@H](N)C(=O)O; hSer = N[C@@H](CCO)C(=O)O; ChCar = not defined here; dAbu = CC[C@@H](N)C(=O)O; dia = not defined here
What was measured:
[1] = target: porcine pancreatic kallikrein (PPK) (Sus scrofa, UniProt P00752); assay: Inhibition of porcine pancreatic kallikrein, cleavage of chromogenic substrate S-2266 (KI); format: biochemical
porcine pancreatic kallikrein (PPK), sequence (P00752 8-87 limits assumed): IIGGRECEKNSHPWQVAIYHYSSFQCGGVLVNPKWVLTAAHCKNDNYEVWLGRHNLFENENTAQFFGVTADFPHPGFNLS
porcine pancreatic kallikrein (PPK), sequence (P00752 95-246 limits assumed): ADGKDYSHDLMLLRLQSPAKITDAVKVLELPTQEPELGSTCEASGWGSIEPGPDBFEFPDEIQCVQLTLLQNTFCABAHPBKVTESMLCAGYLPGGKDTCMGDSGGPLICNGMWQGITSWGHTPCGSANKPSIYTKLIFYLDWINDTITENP

[2] = target: human plasma kallikrein (HPK) (Homo sapiens, UniProt P03952); assay: Inhibition of human plasma kallikrein (KI); format: biochemical
human plasma kallikrein (HPK), sequence (P03952 20-638): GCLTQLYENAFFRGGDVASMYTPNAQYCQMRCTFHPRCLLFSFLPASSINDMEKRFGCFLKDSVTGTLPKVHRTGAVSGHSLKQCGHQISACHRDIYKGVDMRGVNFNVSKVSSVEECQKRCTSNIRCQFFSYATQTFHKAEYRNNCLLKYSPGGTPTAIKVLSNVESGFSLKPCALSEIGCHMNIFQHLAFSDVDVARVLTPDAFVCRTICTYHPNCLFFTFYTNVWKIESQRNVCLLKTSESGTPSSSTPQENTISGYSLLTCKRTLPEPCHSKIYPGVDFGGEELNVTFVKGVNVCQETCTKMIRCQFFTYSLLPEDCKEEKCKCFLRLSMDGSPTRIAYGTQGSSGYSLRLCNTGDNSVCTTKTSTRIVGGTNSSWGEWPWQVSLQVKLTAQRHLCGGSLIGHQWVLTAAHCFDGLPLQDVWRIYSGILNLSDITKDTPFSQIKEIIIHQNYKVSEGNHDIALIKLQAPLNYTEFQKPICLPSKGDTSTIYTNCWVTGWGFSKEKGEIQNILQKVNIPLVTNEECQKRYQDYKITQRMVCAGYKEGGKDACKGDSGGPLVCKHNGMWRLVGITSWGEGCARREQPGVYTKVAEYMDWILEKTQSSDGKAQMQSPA
Description: Assay methods were based on the cleavage of chromogenic substrate S-2266 (D-Val-Leu-Arg-pNA) (Kabi; Charlotte, N.C.) by porcine pancreatic kallikrein (Sigma Chemical Company; St. Louis, Mo.) to yield an increase in absorbance at 405 nm. By changing the substrate and enzyme, the general method has been extended to measure the inhibition of human tissue kallikrein (HTK or human urinary kallikrein HUK), human plasma kallikrein (HPK), plasmin, and urokinase (UK). In all assays, the robot dilutes the inhibitor into a series of wells and adds substrate and buffer. Chromogenic reactions are started by the addition of enzyme. Changes in the absorbance at 405 nm in an array of wells were recorded. All manipulations were performed by the instrument from reservoirs containing substrate, inhibitor, diluent (water), buffer, or enzyme.

[3] = Table 2, P3 substitutions, read-out: log KI (converted)
[4] = Table 5, Pro-Phe-Arg-X-Val-Gln, read-out: KI PPK
[5] = Table 5, Pro-Phe-Arg-X-Val-Gln, read-out: KI HPK
[6] = Table 4, Pro-X-Arg-Ser-Val-Gln, read-out: KI PPK
[7] = Table 4, Pro-X-Arg-Ser-Val-Gln, read-out: KI HPK

Q: How did the Ki [1, 3] turn out when `CC(C)[C@H](NC(=O)[C@H](CO)NC(=O)[C@H](CCCNC(=N)N)NC(=O)[C@H](Cc1ccccc1)NC(=O)[C@@H](C)N)C(=O)N[C@@H](CCC(N)=O)C(N)=O` [KKI-81, [D-Ala]-Phe-Arg-Ser-Val-Gln] (H-[dA]FRSVQ-NH2) was run?
A: Its Ki is 50.1 µM.

Q: How did the Ki ([1]; Table 7, in mM, read-out: K1 PPK) turn out when `CC(C)[C@H](NC(=O)[C@H](CO)NC(=O)[C@H](CCCNC(N)=O)NC(=O)[C@H](Cc1ccccc1)NC(=O)[C@@H]1CCCN1)C(=O)N[C@@H](CCC(N)=O)C(N)=O` [KIDZ-7, Pro-Phe-Cit-Ser-Val-Gln] (H-PF[Cit]SVQ-NH2) was run?
A: The Ki was over 3000 µM.

Q: What about the Ki ([2]; Table 7, in mM, read-out: K1 HPK) of the same compound?
A: The Ki was over 5 mM.

Q: Which results are given for `CC(C)[C@H](NC(=O)[C@H](CCO)NC(=O)[C@H](CCCNC(=N)N)NC(=O)[C@H](Cc1ccccc1)NC(=O)[C@@H]1CCCN1)C(=O)N[C@@H](CCC(N)=O)C(N)=O` [Hse] (H-PFR[hSer]VQ-NH2)?
A: Ki [1, 4]: 163 µM; Ki [2, 5]: 0.359 mM

Q: With `CC(C)[C@H](NC(=O)[C@H](CO)NC(=O)[C@H](CCCCCN)NC(=O)[C@H](Cc1ccccc1)NC(=O)[C@@H]1CCCN1)C(=O)N[C@@H](CCC(N)=O)C(N)=O` [KIDZ-8, Pro-Phe-hLys-Ser-Val-Gln] (H-PF[hLys]SVQ-NH2) as the compound, how does the Ki ([1]; Table 7, read-out: K1 PPK) read?
A: The Ki was 203 µM.

Q: `CC(C)[C@H](N)C(=O)N[C@@H](Cc1ccccc1)C(=O)N[C@@H](CCCNC(=N)N)C(=O)N[C@@H](CC(N)=O)C(=O)N[C@@H](CO)C(=O)N[C@@H](CCCNC(=N)N)C(N)=O` [Val-Phe-Arg-Asn-Ser-Arg] (H-VFRNSR-NH2) was tested. Which Ki ([2]; Table 6, HUK, read-out: KI HUK) did it give?
A: The Ki was 0.194 mM.

Q: How did the Ki [1, 3] turn out when `CC(C)[C@H](NC(=O)[C@H](CO)NC(=O)[C@H](CCCNC(=N)N)NC(=O)[C@H](Cc1ccccc1)NC(=O)[C@H](N)C(C)C)C(=O)N[C@@H](CCC(N)=O)C(N)=O` [KKI-83, [D-Val]-Phe-Arg-Ser-Val-Gln] (H-[dV]FRSVQ-NH2) was run?
A: Its Ki is 100 µM.

Q: What does the source list for “ChCar-Phe-Arg-dia-Val-Gln (ChCar-FR[dia]VQ; reading uncertain; also: printed as ChCar-Phe-Arg-dia-Val-Gln)”?
A: Ki ([1]; Table 6, read-out: KI PPK): 114 µM; Ki ([2]; Table 6, HUK, read-out: KI HUK): 0.985 mM

Q: Which Ki [1, 3] does the source give for `CC[C@H](C)[C@@H](N)C(=O)N[C@@H](Cc1ccccc1)C(=O)N[C@@H](CCCNC(=N)N)C(=O)N[C@@H](CO)C(=O)N[C@H](C(=O)N[C@@H](CCC(N)=O)C(N)=O)C(C)C` [KKI-105] (H-[d(aIle)]FRSVQ-NH2) here?
A: Its Ki is 57.5 µM.

Q: For `CC(C)[C@H](N)C(=O)N[C@@H](Cc1ccccc1)C(=O)N[C@@H](CCCNC(=N)N)C(=O)N[C@@H](CC(N)=O)C(=O)N[C@H](CCCNC(=N)N)C(=O)N[C@@H](CCC(N)=O)C(N)=O` [Val-Phe-Arg-Asn-dArg-Gln] (H-VFRN[dR]Q-NH2), which Ki ([2]; Table 6, HUK, read-out: KI HUK) is on record?
A: The Ki was 1.57 mM.

Q: Which Ki [1, 4] does the source give for `CC(C)[C@H](NC(=O)[C@@H](CO)NC(=O)[C@H](CCCNC(=N)N)NC(=O)[C@H](Cc1ccccc1)NC(=O)[C@@H]1CCCN1)C(=O)N[C@@H](CCC(N)=O)C(N)=O` [D-Ser] (H-PFR[dS]VQ-NH2) here?
A: The Ki was 1120 µM.

Q: How did the Ki [1, 3] turn out when `CC[C@@H](N)C(=O)N[C@@H](Cc1ccccc1)C(=O)N[C@@H](CCCNC(=N)N)C(=O)N[C@@H](CO)C(=O)N[C@H](C(=O)N[C@@H](CCC(N)=O)C(N)=O)C(C)C` [KKI-82, [D-Aab]-Phe-Arg-Ser-Val-Gln] (H-[dAbu]FRSVQ-NH2) was run?
A: Its Ki is 43.7 µM.

Q: For `CC[C@H](C)[C@H](NC(=O)[C@H](CCCNC(=N)N)NC(=O)[C@H](C)NC(=O)[C@H](CCCCN)NC(=O)[C@H](CS)NC(=O)[C@@H]1CCCN1)C(N)=O` [Pro-Cys-Lys-Ala-Arg-Ile] (H-PCKARI-NH2), which Ki ([1]; Table 6, read-out: KI PPK) is on record?
A: The Ki was 0.003 µM.

Q: What about the Ki ([2]; Table 6, HUK, read-out: KI HUK) of the same compound?
A: The Ki was 0.00018 mM.

Q: Which Ki ([1]; Table 7, read-out: K1 PPK) does the source give for `CC(C)[C@H](N)C(=O)N[C@@H](Cc1ccccc1)C(=O)N[C@H](C=O)Cc1ccc(N)cc1` [KITDS-2, Val-Phe-Phe(4NH2)-aldehyde] (H-Val-Phe-[Phe(4-NH2)]-aldehyde) here?
A: Its Ki is 160 µM.

Q: With `CC(C)[C@H](NC(=O)[C@H](CO)NC(=O)[C@H](CCCNC(=N)N)NC(=O)[C@H](Cc1ccccc1)NC(=O)[C@H](N)C(C)(C)C)C(=O)N[C@@H](CCC(N)=O)C(N)=O` [KKI-84, [D-t-BuGly]-Phe-Arg-Ser-Val-Gln] (H-[dTle]FRSVQ-NH2) as the compound, how does the Ki [1, 3] read?
A: Its Ki is 75.9 µM.

Q: With `CC(C)[C@H](NC(=O)[C@H](CO)NC(=O)[C@H](CCCNC(=N)N)NC(=O)[C@H](Cc1c[nH]c2ccccc12)NC(=O)[C@@H]1CCCN1)C(=O)N[C@@H](CCC(N)=O)C(N)=O` [KCH-11] (H-PWRSVQ-NH2) as the compound, how does the Ki [1, 6] read?
A: Its Ki is 230 µM.

Q: What about the Ki [2, 7] of the same compound?
A: Its Ki is 0.449 mM.

Q: Which results are given for `CC(C)[C@H](N)C(=O)N[C@@H](Cc1ccccc1)C(=O)N[C@@H](CCCCNC(=N)N)C(=O)N[C@@H](CC(N)=O)C(=O)N[C@@H](CCCCNC(=N)N)C(=O)N[C@@H](CCC(N)=O)C(N)=O` [Val-Phe-hArg-Asn-hArg-Gln] (H-VF[hArg]N[hArg]Q-NH2)?
A: Ki ([1]; Table 6, read-out: KI PPK): 2.9 µM and 10 µM; Ki ([2]; Table 6, HUK, read-out: KI HUK): 0.298 mM

Q: Which results are given for `CC(C)[C@H](NC(=O)[C@H](CO)NC(=O)[C@H](CCCNC(=N)N)NC(=O)[C@H](CCc1ccccc1)NC(=O)[C@@H]1CCCN1)C(=O)N[C@@H](CCC(N)=O)C(N)=O` [KCH-2] (H-P[hPhe]RSVQ-NH2)?
A: Ki [1, 6]: 402 µM; Ki [2, 7]: 0.545 mM

Q: With `Nc1ccc(C[C@@H](C=O)NC(=O)[C@H](Cc2ccccc2)NC(=O)[C@@H]2CCCN2C(=O)[C@@H](N)Cc2ccccc2)cc1` [KITSD-1, Phe-Pro-Phe-Phe(4NH2)-aldehyde] (H-FPF[Phe(4-NH2)]-aldehyde) as the compound, how does the Ki ([1]; Table 7, read-out: K1 PPK) read?
A: The Ki was 27 µM.

Q: Which results are given for `CC(C)[C@H](NC(=O)[C@H](CO)NC(=O)[C@H](CCCNC(=N)N)NC(=O)[C@@H](NC(=O)[C@@H]1CCCN1)c1ccccc1)C(=O)N[C@@H](CCC(N)=O)C(N)=O` [KCH-5] (H-P[Phg]RSVQ-NH2)?
A: Ki [1, 6]: 1320 µM; KI HPK ([2]; Table 4, Pro-X-Arg-Ser-Val-Gln): ni

Q: With `CC(C)[C@H](N)C(=O)N[C@@H](Cc1ccccc1)C(=O)N[C@@H](CCCNC(=N)N)C(=O)N[C@@H](CC(N)=O)C(=O)N[C@@H](CCCNC(=N)N)C(=O)N[C@@H](CCC(N)=O)C(N)=O` [Val-Phe-Arg-Asn-Arg-Gln] (H-VFRNRQ-NH2) as the compound, how does the Ki ([2]; Table 6, HUK, read-out: KI HUK) read?
A: The Ki was 0.532 mM.

Q: `CC(C)[C@H](N)C(=O)N[C@@H](Cc1ccccc1)C(=O)N[C@@H](CCCNC(=N)N)C(=O)N[C@@H](CC(N)=O)C(=O)N[C@@H](CC(N)=O)C(=O)N[C@@H](CCCNC(=N)N)C(N)=O` [Val-Phe-Arg-Asn-Asn-Arg] (H-VFRNNR-NH2) was tested. Which Ki ([2]; Table 6, HUK, read-out: KI HUK) did it give?
A: The Ki was 0.124 mM.

Q: Which Ki ([1]; text b291, β-PPK, read-out: KI) does the source give for `CC[C@@H](C)[C@@H](N)C(=O)N[C@@H](Cc1ccccc1)C(=O)N[C@@H](CCCNC(=N)N)C(=O)N[C@@H](CO)C(=O)N[C@H](C(=O)N[C@@H](CCC(N)=O)C(N)=O)C(C)C` [KKI-85, [D-Ile]-Phe-Arg-Ser-Val-Gln] (H-[dI]FRSVQ-NH2) here?
A: The Ki was 34 µM.

Q: How did the Ki [1, 4] turn out when `CC(C)[C@H](NC(=O)[C@H](C)NC(=O)[C@H](CCCNC(=N)N)NC(=O)[C@H](Cc1ccccc1)NC(=O)[C@@H]1CCCN1)C(=O)N[C@@H](CCC(N)=O)C(N)=O` [Ala] (H-PFRAVQ-NH2) was run?
A: Its Ki is 131 µM and 161 µM.

Q: And the Ki [2, 5]?
A: The Ki was 0.536 mM.

Q: `N=C(N)NCCC[C@H](NC(=O)[C@H](CC(N)=O)NC(=O)[C@H](CCCNC(=N)N)NC(=O)[C@H](Cc1ccccc1)NC(=O)[C@@H](N)CCCNC(=N)N)C(=O)N[C@@H](CCC(N)=O)C(N)=O` [Arg-Phe-Arg-Asn-Arg-Gln] (H-RFRNRQ-NH2) was tested. Which Ki ([2]; Table 6, HUK, read-out: KI HUK) did it give?
A: Its Ki is 0.052 mM.

Q: `CC(C)[C@H](NC(=O)[C@H](CO)NC(=O)[C@H](CCCNC(=N)N)NC(=O)[C@H](Cc1ccccc1)NC(=O)CN)C(=O)N[C@@H](CCC(N)=O)C(N)=O` [KKI-80, Gly-Phe-Arg-Ser-Val-Gln] (H-GFRSVQ-NH2) was tested. Which Ki [1, 3] did it give?
A: The Ki was 79.4 µM.
